From ChEMBL document CHEMBL5352463, “Synthesis of novel glutarimide ligands for the E3 ligase substrate receptor Cereblon (CRBN): Investigation of their binding mode and antiproliferative effects against myeloma cell lines” (Eur J Med Chem, 2023)
The source made the active and inactive calls. The rule behind the calls is not given here.

Assays:
MOLP-8 = assay: cells; settings: Homo sapiens, MOLP-8, 48 h
Description: Antiproliferative activity against human MOLP8 cells assessed as inhibition of cell proliferation incubated for 48 hrs by CellTiter Glo luminescence based MTT assay

KMS-12-PE = assay: Antiproliferative activity against human KMS-12-PE cells assessed as inhibition of cell proliferation incubated for 48 hrs by CellTiter Glo luminescence based […]; assay type: functional
[1] = target: Protein cereblon (Homo sapiens) (UniProt Q96SW2); assay: Binding affinity to human CRBN thalidomide binding domain by microscale thermophoresis analysis
Sequence of Protein cereblon (Homo sapiens) (Q96SW2 whole entry, the tested form may be a part): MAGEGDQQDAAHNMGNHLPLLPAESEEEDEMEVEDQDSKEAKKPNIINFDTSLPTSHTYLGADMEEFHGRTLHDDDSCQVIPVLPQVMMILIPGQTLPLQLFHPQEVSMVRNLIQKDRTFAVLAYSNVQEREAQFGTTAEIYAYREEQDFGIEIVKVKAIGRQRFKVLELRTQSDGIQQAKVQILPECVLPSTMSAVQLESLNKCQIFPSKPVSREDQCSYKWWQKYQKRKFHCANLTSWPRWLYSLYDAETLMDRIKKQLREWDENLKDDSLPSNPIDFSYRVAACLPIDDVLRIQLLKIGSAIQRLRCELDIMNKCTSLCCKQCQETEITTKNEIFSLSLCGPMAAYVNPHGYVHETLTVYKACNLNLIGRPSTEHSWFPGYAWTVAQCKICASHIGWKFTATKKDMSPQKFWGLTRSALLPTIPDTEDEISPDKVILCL

[2] = Cytotoxicity against PBMC (unknown origin) cells assessed as inhibition of cell growth incubated for 48 hrs by CellTiter Glo luminescence based […]; assay type: toxicity

Compound	IC50 (MOLP-8)	IC50 (KMS-12-PE)	Activity [1]	IC50 at 48 h [2]
O=C1CCC(CSCc2ccccc2)C(=O)N1 (stereo unspecified)	> 100 µM	–	–	–
Cc1ccc(SCC2CCC(=O)NC2=O)cc1 (stereo unspecified)	38.1 µM	40 µM	–	–
CC(=O)Nc1cccc(SCC2CCC(=O)NC2=O)c1 (stereo unspecified)	49.5 µM	–	–	–
Cc1cc(C)c(SCC2CCC(=O)NC2=O)c(C)c1 (stereo unspecified)	21 µM	23.1 µM	–	–
CN1C(=O)CCC(CSc2ccccc2)C1=O (stereo unspecified)	85.9 µM	> 100 µM	inactive	–
O=C1CCC(CSc2ccc(Cl)cc2)C(=O)N1 (stereo unspecified)	20.5 µM	16.2 µM	–	–
CC(=O)Nc1ccc(SCC2CCC(=O)NC2=O)cc1 (stereo unspecified)	38.3 µM	–	–	–
O=C1CCC(CSc2ccc(F)cc2)C(=O)N1 (stereo unspecified)	32 µM	29.8 µM	–	–
Nc1cccc(SCC2CCC(=O)NC2=O)c1 (stereo unspecified)	41.2 µM	> 90 µM	–	> 200 µM
O=C1CCC(CSc2ncccn2)C(=O)N1 (stereo unspecified)	23.9 µM	36.7 µM	–	–
COc1ccc(CS(=O)(=O)CC2CCC(=O)NC2=O)cc1 (stereo unspecified)	6.27 µM	5.88 µM	–	–
O=C1CCC(CSc2ccccc2)C(=O)N1 (stereo unspecified)	40 µM	36.4 µM	–	–
Cc1ccc(S(=O)(=O)CC2CCC(=O)NC2=O)cc1 (stereo unspecified)	5.3 µM	6.12 µM	–	–
O=C1CCC(CS(=O)(=O)Cc2ccccc2)C(=O)N1 (stereo unspecified)	5.52 µM	5.17 µM	–	–
Cc1ccnc(SCC2CCC(=O)NC2=O)n1 (stereo unspecified)	11.9 µM	36.8 µM	–	–
COc1ccc(CSCC2CCC(=O)NC2=O)cc1 (stereo unspecified)	73.2 µM	> 100 µM	–	–
CC(=O)Nc1ccccc1SCC1CCC(=O)NC1=O (stereo unspecified)	27.4 µM	–	–	–

Compound	IC50 (MOLP-8)	IC50 (KMS-12-PE)	Activity [1]	IC50 at 48 h [2]
O=C1CCC(CS(=O)(=O)c2ccc(F)cc2)C(=O)N1 (stereo unspecified)	5.8 µM	6.45 µM	–	–
Cn1cnnc1SCC1CCC(=O)NC1=O (stereo unspecified)	> 100 µM	> 100 µM	–	–
Nc1ccccc1SCC1CCC(=O)NC1=O (stereo unspecified)	32.3 µM	38.5 µM	–	71.8 µM
O=C1CCC(CSc2cccc([N+](=O)[O-])c2)C(=O)N1 (stereo unspecified)	15.9 µM	13.6 µM	–	–
O=C1CCC(CSc2ccc(Br)cc2)C(=O)N1 (stereo unspecified)	18.3 µM	12.9 µM	–	–
O=C1CCC(SCc2ccccc2)C(=O)N1 (stereo unspecified)	> 100 µM	–	–	–
O=C1CCC(CSc2ccccc2C(=O)O)C(=O)N1 (stereo unspecified)	> 100 µM	> 100 µM	inactive	–
O=C1CCC(CSc2ccccn2)C(=O)N1 (stereo unspecified)	27.4 µM	13.3 µM	–	–
O=C1CCC(CSc2ccccc2[N+](=O)[O-])C(=O)N1 (stereo unspecified)	12.8 µM	13.3 µM	–	–
CN1C(=O)CCC(CSc2ccc(Cl)cc2)C1=O (stereo unspecified)	80.8 µM	45.5 µM	inactive	–
O=C1CCC(CS(=O)(=O)c2ccccc2)C(=O)N1 (stereo unspecified)	5.72 µM	6 µM	–	–
Nc1ccc(SCC2CCC(=O)NC2=O)cc1 (stereo unspecified)	44.3 µM	> 90 µM	–	> 200 µM
O=C1CCC(CSc2ccc([N+](=O)[O-])cc2)C(=O)N1 (stereo unspecified)	8.43 µM	–	–	–
O=C1CCC(CS(=O)(=O)c2ccc(Cl)cc2)C(=O)N1 (stereo unspecified)	6.81 µM	5.9 µM	–	–
O=C1CCC(N2C(=O)c3ccccc3C2=O)C(=O)N1 (stereo unspecified) [THALIDOMIDE]	> 75 µM	> 75 µM	–	–
COC(=O)c1ccccc1SCC1CCC(=O)NC1=O (stereo unspecified)	19.8 µM	32.6 µM	–	–
